In patent US11965122B2, “Method for visually enhancing the experience of an audience during a performance” (PROLUME, LTD., priority 2012, dated 2024):

Experiments:
[1] = test system: Rabbit conjunctiva; assay: Coelenterazine applied directly in Rabbit conjunctiva; assay type: in vivo; conditions: multiple sets applied directly in Rabbit conjunctiva, even at high concentrations
Source text: Denuded and scratched corneal surfaces should release more calcium then a sealed intact healthy cornea and a CAP may be used alone or in conjunction with fluorescein dye to reveal the exact location of the foreign body or severity of the ocular corneal scratch.

[2] = test system: calcium activated photoprotein (CAP); conditions: cited from earlier work; for RLC*: relative to native = 1.00; for Relative Intensity †: relative to native = 1
[3] = test system: Renilla muelleri Luciferase; assay: Luminescent activity of Renilla muelleri Luciferase with Coelenterazine analogues; assay type: biochemical; conditions: integrated over 10 sec
Source text: FIG. 21 is luminescent activity of Renilla muelleri Luciferase with methoxy eCTZ and methoxy eCTZf.

[4] = Brightness of ultraviolet producing Coelenterazine analog
Source text: Diagnosis of conjunctiva pathology and corneal scratches and other acute ocular emergencies such as foreign objects is best performed using an ultraviolet lamp and fluorescein dye. However there are situations, such as camping, or in poorer nations where electricity and ultraviolet lamps are not available. Another embodiment of this invention is a kit containing fluorescein dye, and a CARP manufactured using a ultraviolet producing Coelenterazine analog such as 400a or better because it is much brighter, is methoxy-eCoelenterazine analog contained and stabilized within a freeze dried CARP which can be used for eye examinations in the field.

light-output relative to methoxy eCTZf [3]	Compound	ocular injury [1]	Half-Rise Time ‡ [2]	RLC* [2]	Relative Intensity † [2]	duration of light emission ([2]; CAP manufactured with the analog, delayed spring-opening, over tens of minutes)	brightness compared with 400a [4]
	Oc1ccc(Cc2nc3c(Cc4ccccc4)nc(-c4ccc(O)cc4)cn3c2O)cc1 [Coelenterazine]	failed to produce any ocular injury	6 to 30 ms	1.00	1		
	O=c1c(Cc2ccc(O)cc2)nc2c(CC3CCCC3)[nH]c(-c3ccc(O)cc3)cn1-2 [cp]		2 to 5 ms	0.63	28		
	O=c1c(Cc2ccc(F)cc2)nc2c(Cc3ccccc3)[nH]c(-c3ccc(O)cc3)cn1-2 [f]		6 to 30 ms	0.80	20		
	O=c1c(Cc2ccccc2)nc2c(Cc3ccccc3)[nH]c(-c3ccc(O)cc3)cn1-2 [h]		6 to 30 ms	0.75	16		
	O=c1c(Cc2ccccc2)nc2c(CC3CCCC3)[nH]c(-c3ccc(O)cc3)cn1-2 [hcp]		2 to 5 ms	0.65	500		
	Coelenterazine-Iodide					prolongs light emission	
approx. two-fold	Methoxy-e-Coelenterazine [Methoxy eCTZ]						much brighter
